Patent US20080247987A1, “Block Copolymer Compositions and Uses Thereof” (ANGIOTECH INTERNATIONAL AG, priority 2005, published 2008)
Values after ≈ are worked out from the molar mass of the structure shown. Where two headings read alike, the source gives them in different places.

Assays:
[1] = cited from earlier work
prostate tumors = conditions: via inhibition of angiogenesis; cited from earlier work
AP-1 = conditions: via reduced AP-1 binding to DNA; cited from earlier work
[2] = system: arthritis after anterior cruciate ligament transection; experiment: Surgical transection of the anterior cruciate ligament (mechanical arthritis model); assay type: in vivo, Hartley Guinea pigs; conditions: introduced into the joint
Source text: Hartley Guinea pigs subjected to surgical transaction of the anterior cruciate ligament represent a mechanical model for arthritis. Typically after the anterior cruciate is severed, the animals develop arthritis within several weeks.

[3] = system: carrageenin-induced arthritis; experiment: Inflammatory carrageenin-induced arthritis model; assay type: in vivo; conditions: rabbits
[4] = system: normal chondrocytes and non-proliferating synoviocytes; conditions: cited from earlier work
T-cell = conditions: cited from earlier work
[5] = system: human prostate cancer cell; conditions: in vitro; cited from earlier work
[6] = system: collagen induced arthritis; conditions: animal model; cited from earlier work
physchem = conditions: organic solvent or mixture, thermodynamic from solid
Experimental: The phase separation of the PEG400-TMC/Gly(90/10)900 triblock copolymer from PEG 300 in the presence of water was evaluated to predict its behavior upon dilution in a largely aqueous physiological environment. […] The phase separation is expected to form a PEG 300-rich phase and a PEG400-TMC/Gly(90/10)900-rich phase, the former containing the highest proportion of water. […] Solubility in the PEG 300-rich phase was estimated from co-solvent studies of water/PEG 300 mixtures.

[7] = system: advanced breast, ovarian and non-small cell lung cancer; conditions: in vivo; cited from earlier work
angiogenesis = conditions: cited from earlier work
neutrophil = conditions: cited from earlier work
synoviocytes = conditions: cited from earlier work
prostate cancer [8] = conditions: in vitro; cited from earlier work
prostate cancer [9] = conditions: in vivo; cited from earlier work

Question: Which “solubility in water” value ([1]; pH 6 to 7) does the source give for C[C@@H]1[C@H](O)[C@@H](C)/C=C/C=C/C=C/C=C/C=C/C=C/C=C/[C@H](O[C@@H]2O[C@H](C)[C@@H](O)[C@H](N)[C@@H]2O)C[C@@H]2O[C@](O)(C[C@@H](O)C[C@@H](O)[C@H](O)CC[C@@H](O)C[C@@H](O)CC(=O)O[C@H]1C)C[C@H](O)[C@H]2C(=O)O [Amphotericin] here?
Answer: insoluble in water

Question: With O=C1c2c(O)cccc2Cc2cccc(O)c21 [Anthralin] as the compound, how does the “solubility in water” value [1] read?
Answer: practically insoluble in water

Question: For CC[C@@]1(O)C(=O)OCc2c1cc1n(c2=O)Cc2cc3ccccc3nc2-1 [Camptothecin], which solubility in water [1] is on record?
Answer: 0.001 to 0.002 mg/mL

Question: With COc1cc(/C=C/C(=O)CC(=O)/C=C/c2ccc(O)c(OC)c2)ccc1O [Curcumin] as the compound, how does the “solubility in water” value [1] read?
Answer: practically insoluble in water

Question: Which “solubility in water” value [1] does the source give for O=c1c(-c2ccc(O)cc2)coc2cc(O)cc(O)c12 [Genistein] here?
Answer: practically insoluble in water

Question: For COc1ccc2c(c1)c(CC(=O)O)c(C)n2C(=O)c1ccc(Cl)cc1 [Indomethacin], which “solubility in water” value [1] is on record?
Answer: practically insoluble in water

Question: For CN(C(=O)c1c(O)c2ccccc2n(C)c1=O)c1ccccc1 [Linomide], which “antitumor and antimetastatic effects” value (prostate tumors) is on record?
Answer: both antitumor and antimetastatic effects

Question: What does the source list for CC(=O)O[C@H]1C(=O)[C@@]2(C)[C@H]([C@H](OC(=O)c3ccccc3)[C@]3(O)C[C@H](OC(=O)[C@H](O)[C@@H](NC(=O)c4ccccc4)c4ccccc4)C(C)=C1C3(C)C)[C@]1(OC(C)=O)CO[C@@H]1C[C@@H]2O [Paclitaxel]?
Answer: AP-1 transcription activity (AP-1): inhibits AP-1 transcription activity; effect on arthritic process, cartilage and bone [2]: greatly retarded the arthritic process and protected not only the cartilage, but also the underlying bone, from breakdown; effect on cartilage [3]: demonstrated cartilage; toxicity to non-proliferating cells [4]: non-toxic to non-proliferating cells; T-cell function (T-cell): inhibits T-cell function; T-cell response to stimuli (T-cell): decreases T-cell response to stimuli; solubility in water [1]: 0.001 to 0.002 mg/mL; prostate cancer cell growth [5]: inhibit human prostate cancer cell growth in vitro; collagen induced arthritis [6]: inhibits collagen induced arthritis; solubility (physchem): 250 mg/mL (≈ 293 mM); efficacy against advanced cancers [7]: shown efficacy against advanced breast, ovarian and non-small cell lung cancer; angiogenesis (angiogenesis): potent inhibitory effect on angiogenesis; neutrophil activation (neutrophil): inhibits neutrophil activation; apoptosis in synoviocytes (synoviocytes): induces apoptosis in synoviocytes; proliferation of synoviocytes (synoviocytes): prevents the proliferation of

Question: Which “solubility in water” value [1] does the source give for CC1=C(/C=C/C(C)=C/C=C/C(C)=C/C(=O)O)C(C)(C)CCC1 [Tretinoin] here?
Answer: practically insoluble in water

Question: For C[C@]12CC[C@@H]3c4ccc(OC(=O)N(CCCl)CCCl)cc4CC[C@H]3[C@@H]1CC[C@@H]2O [estramustine], which “efficacy against prostate cancer” value (prostate cancer [8]) is on record?
Answer: some efficacy against prostate cancer

Question: And the “efficacy against prostate cancer” value (prostate cancer [9])?
Answer: some efficacy against prostate cancer

Question: What does the source list for CC[C@]1(O)C[C@@H]2CN(CCc3c([nH]c4ccccc34)[C@@](C(=O)OC)(c3cc4c(cc3OC)N(C)[C@H]3[C@@](O)(C(=O)OC)[C@H](OC(C)=O)[C@]5(CC)C=CCN6CC[C@]43[C@@H]65)C2)C1 [vinblastine]?
Answer: efficacy against prostate cancer (prostate cancer [8]): some efficacy against prostate cancer; efficacy against prostate cancer (prostate cancer [9]): some efficacy against prostate cancer
